# Measured values taken from US20170121683A1, “ARYL HYDROCARBON RECEPTOR DISRUPTION AND ENHANCEMENT” (priority 2015, published 2017).
# Columns and labels:
# [1] = tested on: non-human primate iPSCs; settings: Gori et al. Blood 2012; cited from earlier work
# [2] = tested on: H9 hESC-derived non-adherent hematopoietic progenitor cells; assay: Hematopoietic colony forming unit (CFU) assay (Example 1); type: cell-based, human
# Protocol: FIG. 5A. H9 hESCs were differentiated as spin EB exposed to Stage I mesodermal induction media for 6 days and transferred to hemato-endothelial induction media with either DMSO, 1 μM SR-1, or 10 nM TCDD treatment for an additional 6 days. On day 12 of total differentiation, 50,000 non-adherent cells were obtained in each treatment group and seeded in Methocult H4436. Following 14 days of growth, colony-forming units (CFUs) were quantified and scored based on morphology. Data are represented as number of CFUs per 5×10^4 cells. FIG. 5B. Distribution of CFU morphology for DMSO-, SR-1-, and TCDD-treated H9 hESCs. *p<0.05 as compared to DMSO-treated H9 hESC (Student's t-test) and represent an average of three biological replicates with error bars representing SEM. CFU-GEMM: Colony-Forming Unit Granulocyte/Erythrocyte/Macrophage/Megakaryocyte; CFU-M: Colony-Forming Unit Macrophage; CFU-GM: Colony-Forming Unit-Granulocyte/Macrophage; CFU-E: Colony-Forming Unit Erythroid; BFU-E: Burst-Forming Unit-Erythroid.
# Non-adherent, differentiated hematopoietic progenitor cells were harvested following 6 days growth as spin-EBs in Stage I conditions, followed by an additional 6 days growth in Stage II conditions. […] Plates were incubated in a 37° C. in a humidified atmosphere containing 5% CO2 for 14 days and were subsequently scored.
# [3] = tested on: non-adherent hematopoietic fractions of differentiating hESC-derived cells; assay: qRT-PCR of hematopoietic transcriptional regulators; type: cell-based, human
# Excerpt: FIG. 9A. Non-adherent hematopoietic progenitor cells derived from hESCs differentiated in the presence of SR-1, TCDD, or DMSO controls were harvested at Day 6+5 and seeded at 50,000 cells/dish in a standard methylcellulose colony-forming unit assay (CFU). Colonies were counted for each treatment group following 2 weeks of culture and scored for the following morphological subsets: BFU-E: burst-forming unit-erythroid; CFU-E: colony-forming unit-erythroid; CFU-GM: colony-forming unit-granulocyte, macrophage, CFU-M: colony-forming unit-macrophage; CFU-GEMM: colony-forming unit-granulocyte, erythroid, macrophage, megakaryocyte. n=3, error bars represent SEM of the total number of colonies/50,000 cells seeded, *p<0.05 as assessed with one-way ANOVA+Tukey-Kramer multiple comparisons post-hoc test. FIG. 9B. Non-adherent hematopoietic progenitor cells derived from hESCs differentiated in the presence of SR-1, TCDD, or DMSO controls were harvested at Day 6+3, Day 6+6, and Day 6+9 time points and probed for gene expression by quantitative real-time PCR (qRT-PCR). For each gene, Ct values were normalized to GAPDH at each time point and data is presented as relative fold-change to DMSO treated controls. n=3, error bars represent SEM, *p<0.05, **p<0.01 using student's t-test.
# Non-adherent cell fractions were harvested as previously described in the main text. Total RNA was harvested using the Qiashredder tissue homogenizer kit (Qiagen, Valencia, Calif.) with RNAeasy Mini Kit. RNA concentration and purity was assessed using a NanoDrop 2000 (ThermoFisher Scientific) spectrophotometer and subsequently revere transcribed with a SensiFAST cDNA Synthesis Kit (Bioline, Taunton, Mass.). qPCR was performed using the All-in-One qPCR Mix (GeneCopoeia, Rockville, Md.) and cDNA was used at 50 ng/uL per reaction for qRT-PCR using gene specific human primer pairs (Table 1). qPCR reactions were run on an StepOnePlus Real-Time PCR System thermocycler (ThermoFisher Scientific) in either technical duplicate or triplicate. Ct values were normalized to a GAPDH housekeeper for each sample. Data were then normalized relative to controls using the 2̂-(ΔΔCt) method.
SMILES,kinetics or quantity of CD34+ or CD34+CD31+ cells [1],phenotypic CD34+CD45+ cells [1],total number of colony-forming units (CFUs) [1],"increase in total number of colonies relative to DMSO-treated control cells ([2]; non-adherent cells harvested at Day 12, 1 μM SR-1) [fold]","proportion of CFU-M and CFU-GM ([2]; non-adherent cells harvested at Day 12, 1 μM SR-1, relative to DMSO)","expression of GATA1, fold relative to DMSO controls ([3]; Day 6+3) [fold]","expression of GATA2, fold relative to DMSO controls ([3]; Day 6+3) [fold]","mean GATA2:GATA1 ([3]; Day 6+3, SR-1 treatment)",expression of CMYB ([3]; all time points),"expression of GATA2, fold relative to DMSO controls ([3]; Day 6+6) [fold]","expression of PU.1 ([3]; each time point (Day 6+3, 6+6, 6+9))"
"CC(C)n1cnc2c(NCCc3ccc(O)cc3)nc(-c3csc4ccccc34)nc21 [SR-1, StemReginin-1]",no differences,increase,did not enhance,4,increased proportion,2.58±0.40,6.85±0.74,2.67,significant increase,–,–
"Clc1cc2c(cc1Cl)Oc1cc(Cl)c(Cl)cc1O2 [TCDD, 2,3,7,8-tetrachlorodibenzo-p-dioxin]",–,–,–,–,–,0.31±0.08,–,–,–,0.37±0.13,reciprocal expression
